Measurements published in ChEMBL document CHEMBL1130446, “The synthesis of CD - ring modified 1,25-dihydroxy vitamin D analogues: Six-membered D-ring analogues II” (Bioorg Med Chem Lett, 1997).

Key:
[1] = Ratio of biological evaluation of compound in keratinocytes and calcium sreum was determined. value expressed as relative toxicity.; format: cell-based
MCF7 = assay: Compound was tested in vitro for its biological evaluation against MCF-7 cell line; format: functional, Homo sapiens
Mus musculus = assay: In vivo effect in vitamin D-replete normal NMRI mice by measuring calcium levels in serum; format: functional
MG-63 = assay: Compound was tested in vitro for its biological evaluation against MG-63 cell line; format: functional, Homo sapiens
Keratinocyte = assay: Compound was tested in vitro for its biological evaluation against keratinocytes cell line; format: functional
[2] = target: T1, Vitamin D3 receptor (Sus scrofa domesticus) (UniProt Q7M3G7); assay: Compound was tested for its relative affinity to pig intestinal mucosa Vitamin D3 receptor using [3H]- 1 alpha,25(OH)2 D3 radioligand compared to 1 alpha 25-(OH)2D3; format: tissue-based
T1 sequence (whole entry): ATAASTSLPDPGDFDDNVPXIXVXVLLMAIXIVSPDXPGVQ

HL-60 = assay: Compound was tested in vitro for its biological evaluation against HL-60 cell line; format: functional, Homo sapiens
[3] = Ratio of biological evaluation of compound in keratinocytes and calcium serum was determined. value expressed as relative toxicity.; format: cell-based

| Relative affinity [2] | Structure (SMILES) | Ratio [1] | Activity (MCF7) | Activity (Mus musculus) | Activity (MG-63) | Activity (Keratinocyte) | Activity (HL-60) | Ratio [3] |
| --- | --- | --- | --- | --- | --- | --- | --- | --- |
| 0.7 | C=C1C(=CC=CC2CCCC([C@@H](C)CC#CC(C)(C)O)C2(C)C)C[C@@H](O)C[C@@H]1O (stereo not given in full) | 28 | 4 | 0.25 | 20 | 7 | 10 |  |
| 70 | C=C1/C(=C\C=C2/CCC[C@]3(C)C([C@H](C)CC#CC(C)(C)O)=CC[C@@H]23)C[C@@H](O)C[C@@H]1O [ILX23-7553] | 1300 | 4250 | 10 | 1000 | 8000 | 1000 |  |
| 60 | C=C1C(=CC=CC2CCCC([C@H](C)CC#CC(C)(C)O)C2(C)C)C[C@@H](O)C[C@@H]1O (stereo not given in full) |  | 100 | <0.1 |  | 200 | 85 | 2000 |
